According to paper PMC4232510, “Identification of Functionally Important Residues of the Rat P2X4 Receptor by Alanine Scanning Mutagenesis of the Dorsal Fin and Left Flipper Domains” (PLoS ONE, 2014):
Changes are numbered by the printed parent chain.

Columns and labels:
Test in all cases: whole-cell patch clamp, HEK293T cells expressing mutant
Format in all cases: cell-based
Conditions in all cases: for relative responsiveness: 100 µM agonist 2 s, relative to ATP (100%)
rP2X4R H286A mutant = target: T1, rP2X4R H286A mutant (Rattus norvegicus, UniProt P51577, H286A)
T1 construct: expressed in transfected cells; host or cells: HEK293T
T1 sequence (P51577 1-388 H286A): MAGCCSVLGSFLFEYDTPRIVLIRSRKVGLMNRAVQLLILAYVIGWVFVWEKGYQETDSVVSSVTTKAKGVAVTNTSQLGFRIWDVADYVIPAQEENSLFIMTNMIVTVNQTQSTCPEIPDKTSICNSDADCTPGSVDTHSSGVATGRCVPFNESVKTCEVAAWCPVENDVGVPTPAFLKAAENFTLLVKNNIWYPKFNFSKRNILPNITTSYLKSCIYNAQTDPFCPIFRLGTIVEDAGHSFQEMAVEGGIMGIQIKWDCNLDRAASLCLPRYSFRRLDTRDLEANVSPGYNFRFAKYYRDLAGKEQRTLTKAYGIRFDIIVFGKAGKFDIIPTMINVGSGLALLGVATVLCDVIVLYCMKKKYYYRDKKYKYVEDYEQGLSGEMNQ

rP2X4R G291A mutant = target: T2, rP2X4R G291A mutant (Rattus norvegicus, UniProt P51577, G291A)
T2 construct: expressed in transfected cells; host or cells: HEK293T
T2 sequence (P51577 1-388 G291A): T1 sequence (P51577 1-388 H286A) with A286H, G291A

rP2X4R I205A mutant = target: T3, rP2X4R I205A mutant (Rattus norvegicus, UniProt P51577, I205A)
T3 construct: expressed in transfected cells; host or cells: HEK293T
T3 sequence (P51577 1-388 I205A): T1 sequence (P51577 1-388 H286A) with I205A, A286H

[1] = 100 µM ATP 60 s, biexponential fit
[2] = contribution of τdes2, 100 µM ATP 60 s
[3] = decay after removal of 1 or 3 µM ATP, 3 µM IVM
[4] = naïve receptors, 2–5 s application
[5] = 3 µM IVM 4-6 min vs IVM-untreated

Compound: 2′(3′-O-(4-Benzoylbenzoyl)adenosine 5′-triphosphate [BzATP]
- relative responsiveness (rP2X4R H286A mutant): 25.6±4.0%
- relative responsiveness (rP2X4R G291A mutant): 53.0±4.0 %
- relative responsiveness (rP2X4R I205A mutant): 4.4±2.6 %

Compound: CSc1nc(N)c2ncn([C@@H]3O[C@H](COP(=O)(O)OP(=O)(O)OP(=O)(O)O)[C@@H](O)[C@H]3O)c2n1 [2-MeS-ATP, 2-(Methylthio)adenosine 5′-triphosphate]
- relative responsiveness (rP2X4R H286A mutant): 67.9±1.2%
- relative responsiveness (rP2X4R G291A mutant): 36.9±8.8 %
- relative responsiveness (rP2X4R I205A mutant): 35.6±1.9 %

Compound: Nc1ncnc2c1ncn2[C@@H]1O[C@H](COP(=O)(O)OP(=O)(O)OP(=O)(O)O)[C@@H](O)[C@H]1O [ATP]
- τdes1 (rP2X4R H286A mutant; [1]): 4.0 ± 0.8 s
- τdes2 (rP2X4R H286A mutant; [1]): 16.2 ± 1.6 s
- Imax+IVM (rP2X4R H286A mutant; ATP after 3 µM IVM 4-6 min): 4.2 ± 0.7 nA
- A2 /(A1+A2) (rP2X4R H286A mutant; [2]): 55 ± 5%
- τoff +IVM (rP2X4R H286A mutant; [3]): 12 ± 2.1 s
- EC50 (rP2X4R H286A mutant; [4]): 20 ± 2.9 µM
- τdes (rP2X4R H286A mutant; weighted, 100 µM ATP 60 s): 11 ± 1.4 s
- τdes1 (rP2X4R G291A mutant; [1]): 2.0 ± 0.5 s
- τdes2 (rP2X4R G291A mutant; [1]): 16.5 ± 2.7 s
- Imax (rP2X4R G291A mutant; 100–1000 µM ATP): 2.1 ± 0.2 nA
- Imax+IVM (rP2X4R G291A mutant; ATP after 3 µM IVM 4-6 min): 3.3 ± 0.4 nA
- A2 /(A1+A2) (rP2X4R G291A mutant; [2]): 69 ± 12%
- τoff +IVM (rP2X4R G291A mutant; [3]): 13 ± 1.0 s
- EC50 (rP2X4R G291A mutant; [4]): 15 ± 3.8 µM
- τdes (rP2X4R G291A mutant; weighted, 100 µM ATP 60 s): 13 ± 2.7 s
- EC50 rightward shift compared to WT (rP2X4R I205A mutant): approximately 10 fold
- τdes1 (rP2X4R I205A mutant; [1]): 1.5 ± 0.7 s
- τdes2 (rP2X4R I205A mutant; [1]): 8.1 ± 1.3 s
- Imax (rP2X4R I205A mutant; 100–1000 µM ATP): 0.6 ± 0.13 nA
- Imax+IVM (rP2X4R I205A mutant; ATP after 3 µM IVM 4-6 min): 4.3 ± 0.4 nA
- A2 /(A1+A2) (rP2X4R I205A mutant; [2]): 51 ± 4%
- τoff +IVM (rP2X4R I205A mutant; [3]): 4.1 ± 0.9 s
- EC50 (rP2X4R I205A mutant; [4]): 26 ± 7.7 µM
- τdes (rP2X4R I205A mutant; weighted, 100 µM ATP 60 s): 4.9 ± 0.9. s

Compound: Nc1ncnc2c1ncn2[C@@H]1O[C@H](CO[P@](=O)(O)O[P@](=O)(O)O[P@@](=O)(O)S)[C@@H](O)[C@H]1O [ATPγS, Adenosine 5′-(γ-thio)triphosphate]
- relative responsiveness (rP2X4R H286A mutant): 39.8±6.2%
- relative responsiveness (rP2X4R G291A mutant): 31.6±6.1 %
- relative responsiveness (rP2X4R I205A mutant): 11.3±2.2 %

Compound: CC[C@H](C)[C@H]1O[C@]2(CC[C@@H]1C)C[C@@H]1C[C@@H](C/C=C(\C)[C@@H](O[C@H]3C[C@H](OC)[C@@H](O[C@H]4C[C@H](OC)[C@@H](O)[C@H](C)O4)[C@H](C)O3)[C@@H](C)/C=C/C=C3\CO[C@@H]4[C@H](O)C(C)=C[C@@H](C(=O)O1)[C@]34O)O2 [IVM, ivermectin]
- Fold incr. Imax (rP2X4R H286A mutant; [5]): 1.9 ± 0.3 fold
- Fold incr. Imax (rP2X4R G291A mutant; [5]): 1.4 ± 0.02 fold
- Fold incr. Imax (rP2X4R I205A mutant; [5]): 5.5 ± 0.6 fold

Compound: Nc1ncnc2c1ncn2C1OC(COP(=O)(O)CP(=O)(O)OP(=O)(O)O)C(O)C1O (stereo not drawn) [α,β-meATP, α,β-methyleneadenosine 5′-triphosphate]
- relative responsiveness (rP2X4R H286A mutant): 30.0±6.8%
- relative responsiveness (rP2X4R G291A mutant): 2.8±0.5 %
- relative responsiveness (rP2X4R I205A mutant): 4.6±1.0 %
